The source of these data is paper PMC3412276 (Molecular Microbiology, 2012).

This experiment deals with T1, TbPMI (phosphomannose isomerase) (Trypanosoma brucei, UniProt Q381V7).
T1 construct: gene Tb11.01.6410
T1 sequence (Q381V7 1-409): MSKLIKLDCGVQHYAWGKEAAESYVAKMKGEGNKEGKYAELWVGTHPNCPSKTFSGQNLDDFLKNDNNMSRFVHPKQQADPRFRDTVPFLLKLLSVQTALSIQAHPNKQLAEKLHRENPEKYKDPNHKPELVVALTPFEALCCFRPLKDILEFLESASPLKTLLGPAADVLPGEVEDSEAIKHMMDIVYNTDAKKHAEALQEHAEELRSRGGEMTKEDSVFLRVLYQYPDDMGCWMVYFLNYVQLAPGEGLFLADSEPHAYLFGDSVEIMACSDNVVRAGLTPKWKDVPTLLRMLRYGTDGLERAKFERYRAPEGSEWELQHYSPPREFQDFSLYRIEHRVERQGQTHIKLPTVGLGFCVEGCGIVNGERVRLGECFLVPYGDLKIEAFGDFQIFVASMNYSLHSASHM
The experiment in a line: HPAEC with pulsed amperiometric detection. The note with it: 0.25 mM sugar-6P, 2 mM bis-tris propane pH 7.3, 2.5 mM MgCl2, 37°C, 15 min. It is filed as biochemical.

On to `O=P(O)(O)OC[C@H]1OC(O)(CO)[C@@H](O)[C@@H]1O` (some centres unmarked) [Fru-6P], for which the “HPAEC with pulsed amperiometric detection” value (converted to Man-6P) was “to be able to convert Man-6P to Fru-6P and Fru-6P to Man-6P, as expected”.
Consider `O=P(O)(O)OC[C@H]1OC(O)[C@@H](O)[C@@H](O)[C@@H]1O` (some centres unmarked) [Man-6P], for which, where the note is “converted to Fru-6P”, the “HPAEC with pulsed amperiometric detection” value was “to be able to convert Man-6P to Fru-6P and Fru-6P to Man-6P, as expected”.
